The values below come from patent US4916118A, “Pharmaceutical administration systems containing chemotactic peptides” (Board of Regents, The University of Texas System, priority 1987, dated 1990).

Assay [1] deals with mouse peritoneal macrophages. Nature of the assay: In-vitro assay of macrophage mediated cytotoxicity ([125I]IdUrd radioactive release assay). Particulars: for cpm +/- S.D.: 10^-8 M FMLP, radioactivity of remaining viable target tumor cells. Type of assay: cell-based.
Assay [2] deals with mouse peritoneal macrophages. Described as above. The assay is classed as cell-based. As for the experimental part:
FMLP was purchased from Sigma Chemical Co. The stock solution (10 mM) was made in methanol and stored at -70° before use. For free form use, the stock solution was diluted to concentrations between 10^-4 M and 10^-7 M with CMEM containing 5% FBS. […]
Macrophage mediated cytotoxicity was assessed by a radioactive release assay as described in Sone S. and Fidler I. J., Cell Immunology 57, 42 (1981). Target cells in exponential growth phase were incubated for 24 h in medium supplemented with [^125 I]IdUrd (0.2 μCi/ml; specific activity, 200 mCi/mmol; New England Nuclear, Boston, Mass.). The cells then were washed 3 times with warm HBSS to remove unbound radiolabel, harvested by a short trypsinization (0.25% Difco trypsin and 0.02% EDTA for 1 min at 37°), and resuspended in CMEM containing 5% FBS. Viable cells were plated into the wells containing macrophages to achieve a population density of 2500 macrophages and 250 tumor cells per sq mm (or an initial macrophage:target cell ratio of 10/1). At this population density, normal (untreated) macrophages are not cytotoxic to neoplastic cells. No significant differences were detected in the plating efficiency (binding) of [^125 I]IdUrd-labeled target cells to control or liposome-treated macrophage populations. Radiolabeled target cells also were plated alone as an additional control group. The macrophage-target cell cultures were refed with medium 24 h after the addition of the target cells to remove all nonplated cells and then were incubated for up to 3 days at 37°. At this time, the cultures were washed twice with HBSS to remove […], and the remaining viable, adherent cells were lysed with 0.1 ml of 0.1N NaOH. The lysate was absorbed in a cotton swab and placed directly into 10×75 mm tubes; radioactivity was measured in a gamma counter. […] The cytotoxic activity of the macrophages was calculated as follows: [formula] Experimental results were analyzed for their statistical significance by Student's 2-tailed t test.

Turning to `CSCC[C@H](NC=O)C(=O)N[C@@H](CC(C)C)C(=O)N[C@@H](Cc1ccccc1)C(=O)O` [Free FMLP, N-formyl-L-methionyl-L-leucyl-L-phenylalanine], the “cpm +/- S.D.” value is recorded as 2567 + 70 cpm in assay [1] (Expt. I); 2441 + 32 cpm in assay [1] (Expt. II); 2478 + 74 cpm in assay [2] (10^-4 M FMLP, Expt. I); 2263 + 361 cpm in assay [2] (10^-4 M FMLP, Expt. II); 2619 + 82 cpm in assay [2] (10^-5 M FMLP, Expt. I); 2455 + 106 cpm in assay [2] (10^-5 M FMLP, Expt. II). Moreover, the “cpm +/- S.D.” value is reported as 2633 + 61 cpm in assay [2] (10^-6 M FMLP, Expt. I); 2408 + 32 cpm in assay [2] (10^-6 M FMLP, Expt. II); 2559 + 109 cpm in assay [2] (10^-7 M FMLP, Expt. I); 2298 + 178 cpm in assay [2] (10^-7 M FMLP, Expt. II). Further, the “activation of mouse macrophages to lyse target tumor cells” value in assay [1] (all FMLP concentrations (10^-8 to 10^-4 M), 72 hours of co-cultivation) is on record as “ineffective in rendering macrophages tumoricidal”.
